Values joined by “and” are separate entries in the source; they are usually repeats but may differ in a detail not shown here. Identical values can stand only once. Like-named read-outs stand apart in the source and are kept apart here. Each block holds one compound with its values, some of them ahead of it.
What was measured:
[1] = target: T1, S100A11-AnII (Homo sapiens, UniProt P31949); assay: HTRF (TR-FRET) peptide displacement S100A11-AnII; format: binding; settings: supplementary CSV
T1 construct: made in house; host or cells: E. coli Rosetta (DE3); peptide from LifeTein
T1 sequence (P31949 1-105): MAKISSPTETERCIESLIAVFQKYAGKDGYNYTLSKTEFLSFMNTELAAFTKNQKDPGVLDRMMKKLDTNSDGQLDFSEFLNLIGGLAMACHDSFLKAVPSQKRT
Description: Table S4: Compound IDs and SMILES … S30 […]
(§1) Peptide displacement assay development
(§2) addition of an inhibitor.
(§3) Assay was done in 384-well
(§4) After 2 hours of incubation at
(§5) concentration range to avoid the saturation of the signal.

[2] = GSH reactivity assay (LCMS); format: physicochemical; settings: 1 mM glutathione (GSH) in HEPES buffer, pH 7.5; read-out: GSH t1/2 (converted)
Description: GSH is the most abundant low molecular weight thiol compound in the cell. It protects cells from oxidative damage and the toxicity of xenobiotic electrophiles and maintains redox homeostasis.[43] We speculated that a robust and specific reaction of inhibitors would not be drastically affected by competitive cysteines in the reaction.
50 μM of each compound was incubated at room temperature with 1 mM GSH in 50 mM HEPES, 20 mM NaCl, pH 7.5, and 1.3% DMSO. At each time point, an aliquot was taken and analyzed by LCMS. The percentage of the compound remaining was determined by comparing the area of the peaks of the compound and the GSH adduct. The natural logarithm of the results was fitted to a linear regression, and t1/2 was calculated as t1/2 = ln(2)/–slope.

[3] = system: HeLa; assay: Cell proliferation assay (CellTiter-Glo), HeLa; format: cell-based; settings: Homo sapiens, 48 h, supplementary CSV
Description: (§6) To further characterize the potency of the phenylproline derivatives on cancer cells, their effect on proliferation has been measured on HeLa and A549 cell lines, which are known to express S100A4.[44],[45] A cell proliferation assay was performed by cultivating cells for 48 h in complete media with various concentrations of inhibitors, up to 30 μM. At the end of the treatment, luminescence was measured after the addition of the CellTiter-Glo reagent (Figure 7A).
(§7) The day before, cells were seeded in a white, cell-culture treated 384-well plates in complete high-glucose DMEM to reach a confluency of 25% on the day of the experiment. The next day, the medium was replaced by complete, high-glucose, phenol-red-free medium, and cells were incubated for 48 h in the presence of an inhibitor or DMSO as a control. Aliquots of the supernatant were harvested, diluted 100 times in 200 mM Tris-HCl, pH 7.3, 10% glycerol, and 1% BSA buffer, and used for cyctotoxicity measurement by using the LDH-Glo cytotoxicity assay kit (Promega). In parallel, the CellTiter-Glo (Promega) reagent was added to the cells to measure cell proliferation. Both experiments were done according to the manufacturer’s recommendations, and the luminescence was quantified using the FSX plate reader (Pherastar).

[4] = system: A549; assay: Cell proliferation assay (CellTiter-Glo), A549; format: cell-based; settings: Homo sapiens, 48 h, supplementary CSV
Description: as §6, §7

[5] = Cytotoxicity assay (LDH-Glo), HeLa; format: cell-based; settings: human, HeLa cells, supplementary CSV, read-out: HeLa Cell toxicity IC50
Description: as §6, §7

[6] = Cytotoxicity assay (LDH-Glo), A549; format: cell-based; settings: human, A549 cells, supplementary CSV, read-out: A549 Cell toxicity IC50
Description: as §6, §7

[7] = Log D; format: physicochemical
From the text: (§8) Selected compounds were screened for aqueous solubility in PBS (pH 7.4), metabolic stability in mouse liver microsomes (MLM) as a measure of clearance, Log D, and permeability. ADME studies reported in this work were independently performed by WuXi AppTec (Shanghai, China). Raw data are provided upon request.

[8] = Aqueous solubility in PBS (pH 7.4); format: physicochemical; settings: for solubility: aqueous buffer, PBS pH 7.4, read-out: aq. solubility
From the text: as §8

[9] = Metabolic stability in mouse liver microsomes (MLM); format: in vitro ADME; settings: for MLM, Cli / half-life: mouse liver microsomes; for half-life: read-out: MLM, T1/2
From the text: as §8

[10] = system: MDCK-MDR1 cell line; assay: Cell permeability MDR1-MDCK II; format: in vitro ADME
From the text: as §8

[11] = system: P-glycoprotein (P-gp, MDR1); assay: Cell permeability MDR1-MDCK II; format: in vitro ADME; settings: dog
From the text: as §8

[12] = system: P-gp (MDR1); assay: Cell permeability MDR1-MDCK II; format: in vitro ADME; settings: dog
From the text: as §8

[13] = target: T2, S100A4-NMII (Homo sapiens, UniProt P26447); assay: cell-based
T2 sequence (P26447 whole entry): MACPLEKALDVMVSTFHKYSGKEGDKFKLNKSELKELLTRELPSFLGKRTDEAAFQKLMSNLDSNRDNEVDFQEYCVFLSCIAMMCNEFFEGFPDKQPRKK
From the text: First, we performed IC50 measurements of protein–protein interaction in the presence of inhibitors using NanoBret technology. Briefly, S100A4-HaloTag and NMII-NanoLuc were expressed in 293HEK cells to allow signal detection from donor (NanoLuc) and acceptor (HaLoTag) proximity upon S100A4-NMII interaction.
Assay development was done according to the NanoBRet-NanoGlo detection system manufacturer’s recommendations (Promega) by testing each combination of N- and C-termini of HaloTag and NanoLuc fusion constructs. 293HEK cells were seeded on 6-well plates in complete DMEM media and transfected 6 h later with S100A4-NanoLuc (1.8 μg) and NMII-HaloTag (0.2 μg) constructs using the JetPrime transfection reagent (Polyplus Transfection, Strasbourg, France). After an overnight incubation, cells were resuspended in phenol-red-free, 4% serum media in the presence of the HaloTag NanoBret 618 ligand or DMSO for control. […] NanoBret NanoGlo substrates were added to cells prior to reading the plate with the Pherastar FSX plate reader. The raw Nanobret ratio was calculated by dividing the acceptor emission value (618 nm) by the donor emission value (460 nm) for each sample. The mean NanoBret data were calculated by subtracting the background ratio (no acceptor control) from the sample ratio.

[14] = target: T3, S100A4 (Homo sapiens, UniProt P26447); assay: Protein labeling detection by mass spectrometry, S100A4; settings: 10 μM S100A4, 100 μM inhibitor, 1 h
T3 sequence (P26447 whole entry): as above

[15] = target: T2, S100A4-NMII; assay: HTRF (TR-FRET) peptide displacement S100A4-NMII (MPN peptide); format: binding; set-up: made in house; host or cells: E. coli Rosetta (DE3); peptide from LifeTein; settings: supplementary CSV
Description: as §1, §2, §3, §4, §5

[16] = target: T3, S100A4; assay: biochemical
Description: As a starting point to discover new S100 inhibitors, we used a peptide-displacement assay based on the Amplified Luminescent Proximity Homogeneous Assay (AlphaScreen) of a His-tagged protein interacting with a biotinylated peptide and its ability to be disrupted by small molecule inhibitors of protein interactions.[31] We took advantage of the ability of several S100 proteins to interact with the TRTK-12 peptide.[32] The optimal experimental conditions were determined by performing a protein versus peptide titration for each protein. Serial dilutions of purified 6His-S100 protein (S100A2, S100A4, S100A5, or S100B) were mixed with a serial dilution of a biotinylated TRTK-12 peptide in the presence of 1 mM calcium to allow conformational changes and activation of S100 proteins. […]
(§9) A 4 989 compound library was screened using an Alpha-Screen assay. […] Twelve wells per plate were used as solvent controls and as a reference for inhibition calculation, which was calculated as inhibition (%) = (1 – (Fsample– Fbackground)/(Fsolvent – Fbackground)) × 100
(§10) The best hits from the single-shot experiment were tested for IC50 determination using the HTRF assay as described above. […] The percentage of inhibition was calculated as described above and was used for IC50 determination. […]

[17] = target: S100A2 (Homo sapiens, UniProt P29034); settings: read-out: IC50 S100A2 - TRTK peptide displacement; AlphaScreen, duplicate, 50 μM top FAC
Chain of S100A2 (P29034 whole entry): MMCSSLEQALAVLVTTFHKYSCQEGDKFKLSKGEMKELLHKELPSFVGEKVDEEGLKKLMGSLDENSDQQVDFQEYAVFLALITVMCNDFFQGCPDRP
Description: (§11) As a starting point to discover new S100 inhibitors, we used a peptide-displacement assay based on the Amplified Luminescent Proximity Homogeneous Assay (AlphaScreen) of a His-tagged protein interacting with a biotinylated peptide and its ability to be disrupted by small molecule inhibitors of protein interactions.[31] We took advantage of the ability of several S100 proteins to interact with the TRTK-12 peptide.[32] The optimal experimental conditions were determined by performing a protein versus peptide titration for each protein. Serial dilutions of purified 6His-S100 protein (S100A2, S100A4, S100A5, or S100B) were mixed with a serial dilution of a biotinylated TRTK-12 peptide in the presence of 1 mM calcium to allow conformational changes and activation of S100 proteins. The protein–peptide ratio that allows the highest signal to background, without signal saturation, was chosen as the assay condition for each protein to perform the first screening campaign (Figure S1 and Table S1). An internal diversity library of 4 989 small molecules was screened at a single-dose of 50 μM in duplicate in a 384-well plate format. The four S100 protein screening experiments were performed in parallel. […] We also selected the hits based on their ability to show specificity for one protein; compounds showing 50% or more inhibition for other S100 proteins were not selected (Supporting Information).
as §9, with “assay. 6His-Tag-S100A2, -S100A4, -S100A5, and -S100B were used in combination with TRTK-Biotin peptide under conditions described previously.” for “assay.”
as §10

[18] = target: S100A5 (Homo sapiens, UniProt P33763); settings: read-out: IC50 S100A5 - TRTK peptide displacement; AlphaScreen, duplicate, 50 μM top FAC
Chain of S100A5 (P33763 whole entry): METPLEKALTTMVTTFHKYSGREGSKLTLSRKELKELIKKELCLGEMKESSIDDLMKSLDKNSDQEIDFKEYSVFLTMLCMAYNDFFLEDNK
Description: as §11
as §9, with “assay. 6His-Tag-S100A2, -S100A4, -S100A5, and -S100B were used in combination with TRTK-Biotin peptide under conditions described previously.” for “assay.”
as §10

[19] = target: S100B (Homo sapiens, UniProt P04271); settings: read-out: IC50 S100B - TRTK peptide displacement; AlphaScreen, duplicate, 50 μM top FAC
Chain of S100B (P04271 whole entry): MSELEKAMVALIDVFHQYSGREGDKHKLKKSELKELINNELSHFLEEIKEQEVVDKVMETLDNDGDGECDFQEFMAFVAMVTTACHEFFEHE
Description: as §11
as §9, with “assay. 6His-Tag-S100A2, -S100A4, -S100A5, and -S100B were used in combination with TRTK-Biotin peptide under conditions described previously.” for “assay.”
as §10

[20] = MDCK-MDR1, A to B, read-out: MDR1-MDCK II, AB Papp
[21] = MDCK-MDR1, B to A, read-out: MDR1-MDCK II, BA Papp
[22] = read-out: S100A4 IC50 HTRF assay

Structure (SMILES): CC(C)C[C@@H](NC(=O)[C@H]1C[C@H](c2ccccc2)CN1C(=O)CCl)c1nc2ccccc2[nH]1 [5c]
- IC50 [1]: 36.8 µM
- half-life at 50 μM [2]: 6.8 h
- IC50 [3]: 4.5 µM
- IC50 [4]: 11.9 µM
- IC50 at 48 h [5]: 29.8 µM
- IC50 at 48 h [6]: 37.7 µM
- logD [7]: 4.64
- solubility [8]: 1.69 µg/mL and 3.73 µM
- microsomal stability MLM (in words) [9]: moderate MLM stability
- MLM, Cli [9]: 209 μL/min/mg protein
- half-life [9]: 7 min
- Papp [12, 20]: 12.6 ×10⁻⁶ cm/s
- Papp [12, 21]: 38.8 ×10⁻⁶ cm/s
- IC50 [13]: 11.1 µM
- S100A4 covalent modification pattern (in words) [14]: single shifts
- IC50 ([15]; S100A4 + 1mM GSH IC50 HTRF assay, 1 mM GSH): 1.57 µM
- IC50 [15, 22]: 0.77 µM

Structure (SMILES): CN1CCCC(NC(=O)[C@H]2C[C@H](c3ccccc3)CN2C(=O)CCl)C1=O (stereo partly shown) [5d]
- IC50 [1]: > 30 µM
- IC50 [15, 22]: 1.05 µM

Structure (SMILES): COc1cccc(N2CC(NC(=O)[C@H]3C[C@H](c4ccccc4)CN3C(=O)CCl)CC2=O)c1 (stereo partly shown) [5f]
- IC50 [1]: > 30 µM
- IC50 [15, 22]: 4.75 µM

Structure (SMILES): O=C(Nc1cccc(Cl)c1)[C@H]1C[C@H](c2ccccc2)CN1C(=O)CCl [compound 5]
- IC50 [1]: 33.8 µM
- IC50 [15, 22]: 7.4 µM

Further lines, with some results ahead:

- IC50 [1]: > 30 µM
- half-life at 50 μM [2]: 5.7 h
- IC50 [3]: 2.6 µM
- IC50 [4]: 22.1 µM
- logD [7]: 3.74
- aqueous solubility (in words) [8]: good solubility
- solubility [8]: 45.7 µg/mL and 115 µM
- MLM, Cli [9]: 778 μL/min/mg protein
- half-life [9]: 2 min
- cell permeability MDCK-MDR1 (in words) [10]: good permeability without efflux
- Papp [11, 20]: 3.8 ×10⁻⁶ cm/s
- Papp [11, 21]: 34.5 ×10⁻⁶ cm/s
Structure (SMILES): O=C(NC1CCCc2ccccc21)[C@H]1C[C@H](c2ccccc2)CN1C(=O)CCl (stereo partly shown) [5b]
- IC50 at 48 h [5]: 29.9 µM
- IC50 at 48 h [6]: 29.7 µM

- IC50 [1]: > 30 µM
- IC50 [15, 22]: 3.25 µM
Structure (SMILES): O=C1Nc2ccccc2C1NC(=O)[C@H]1C[C@H](c2ccccc2)CN1C(=O)CCl (stereo partly shown) [5e]

- IC50 [1]: > 30 µM
- IC50 [15, 22]: 1.24 µM
Structure (SMILES): N#CCc1ccc(NC(=O)[C@H]2C[C@H](c3ccccc3)CN2C(=O)CCl)cc1 [5g]

- IC50 [16]: < 1 µM
- IC50 ([16]; read-out: IC50 S100A4 - TRTK peptide displacement, AlphaScreen, duplicate, 50 μM top FAC, 1 mM calcium): 1.23 µM
- IC50 [17]: > 30 µM
- IC50 [18]: > 30 µM
- IC50 [19]: > 30 µM
Structure (SMILES): Cc1ccc(S(=O)(=O)/C=C/C#N)cc1 [compound 1]
